Results published in US20100056516A1 (priority 2006, published 2010).
Structures can show the parent of a compound that is named as a salt.

Tests used:
[1] = biological target: HIV integrase (Human immunodeficiency virus type 1 group M subtype B, UniProt P04585); assay: integrase strand transfer assay (STA); assay type: biochemical; settings: integrase strand transfer; read-out: IC50 in the STA assay
[2] = system: HXB2 virus; assay: microbe, parasite or virus in culture; assay type: cell-based, HIV; settings: Human immunodeficiency virus 1, HXB2, HeLaP4-2, read-out: antiviral IC50 (SCIA-B)
Experimental: An assay for measuring the inhibition of acute HIV infection with HeLa P4-2 cells in a single cycle infectivity assay (SCIA-A) was conducted in accordance with Joyce, J. G., et al., J. Biol. Chem., 2002, 277, 45811, Hazuda, D. J. et al., Science, 2000, 287, 646, and Kimpton, J. et al, J. Virol. 1992, 66, 2232. Infectious virus was produced by transfecting 293T cells with HIV proviral DNA in which the integrase gene was derived from a IIIB isolate and the remainder of the HIV genome was derived from the NL4-3 isolate.
This assay B for measuring the inhibition of acute HIV infection with HeLa P4-2 cells in a single cycle infectivity assay (SCIA-B) is essentially the same as Assay A described above, except that HXB2 virus is employed instead of the IIIb isolate.

SMILES	IC50 [1] [µM]	IC50 [2] [µM]
CCOC(=O)c1c(O)c2cccnc2n(O)c1=O [Example 1, Ethyl 1,4-dihydroxy-2-oxo-1,2-dihydro-1,8-naphthyridine-3-carboxylate]	< 50	< 100
O=c1cc(O)c2cccnc2n1O [Example 2, 1,4-Dihydroxy-1,8-naphthyridin-2(1B)-one]	< 50	< 100
CCOC(=O)c1c(O)c2cc(Br)cnc2n(O)c1=O [Example 3, Ethyl 6-bromo-1,4-dihydroxy-2-oxo-1,2-dihydro-1,8-naphthyridine-3-carboxylate]	< 50	< 100
CN(C)C(=O)c1c(O)c2cccnc2n(O)c1=O [Example 5, 1,4-Dihydroxy-N,N-dimethyl-2-oxo-1,2-dihydro-1,8-naphthyridine-3-carboxamide]	< 50	< 100
O=C(NC1CC1)c1c(O)c2cccnc2n(O)c1=O [Example 6, N-Cyclopropyl-1,4-dihydroxy-2-oxo-1,2-dihydro-1,8-naphthyridine-3-carboxamide]	< 50	< 100
CN(Cc1ccccc1)C(=O)c1c(O)c2cccnc2n(O)c1=O [Example 7, N-Benzyl-1,4-dihydroxy-N-methyl-2-oxo-1,2-dihydro-1,8-naphthyridine-3-carboxamide]	< 50	< 100
O=C(c1c(O)c2cccnc2n(O)c1=O)N1CCCCC1 [Example 8, 1,4-Dihydroxy-3-(piperidin-1-ylcarbonyl)-1,8-naphthyridin-2(1H)-one]	< 50	< 100
CN(C(=O)c1c(O)c2cccnc2n(O)c1=O)C1CCN(C(=O)OC(C)(C)C)CC1 [Example 9]	< 50	< 100
CN(C(=O)c1c(O)c2cccnc2n(O)c1=O)C1CCN(C(=O)OC(C)(C)C)C1 (stereo not shown) [Example 10, tert-Butyl 3-[[(1,4-dihydroxy-2-oxo-1,2-dihydro-1,8-naphthyridin-3-yl)carbonyl](methyl)amino]pyrrolidine-1-carboxylate]	< 50	< 100
COc1ccccc1NC(=O)c1c(O)c2cccnc2n(O)c1=O [Example 11, 1,4-Dihydroxy-N-(2-methoxyphenyl)-2-oxo-1,2-dihydro-1,8-naphthyridine-3-carboxamide]	< 50	< 100
COc1cccc(NC(=O)c2c(O)c3cccnc3n(O)c2=O)c1 [Example 12, 1,4-Dihydroxy-N-(3-methoxyphenyl)-2-oxo-1,2-dihydro-1,8-naphthyridine-3-carboxamide]	< 50	< 100
COc1ccc(NC(=O)c2c(O)c3cccnc3n(O)c2=O)cc1 [Example 13, 1,4-Dihydroxy-N-(4-methoxyphenyl)-2-oxo-1,2-dihydro-1,8-naphthyridine-3-carboxamide]	< 50	< 100
COc1ccc(NC(=O)c2c(O)c3cccnc3n(O)c2=O)cn1 [Example 14, 1,4-Dihydroxy-N-(6-methoxypyridine-3-yl)-2-oxo-1,2-dihydro-1,8-naphthyridine-3-carboxamide]	< 50	< 100
O=C(Nc1ccccc1OCc1ccccn1)c1c(O)c2cccnc2n(O)c1=O [Example 15, 1,4-Dihydroxy-2-oxo-N-[2-(pyridin-2-ylmethoxy)phenyl]-1,2-dihydro-1,8-naphthyridine-3-carboxamide, hydrochloric acid salt]	< 50	> 100
O=C(Nc1cccnc1)c1c(O)c2cccnc2n(O)c1=O [Example 16, 1,4-Dihydroxy-2-oxo-N-pyridin-3-yl-1,2-dihydro-1,8-naphthyridine-3-carboxamide]	< 50	< 100
O=C(NCc1ccc(F)cc1)c1c(O)c2cccnc2n(O)c1=O [Example 18, N-(4-Fluorobenzyl)-1,4-dihydroxy-2-oxo-1,2-dihydro-1,8-naphthyridine-3-carboxamide]	< 50	< 100
O=C(NCc1ccccc1)c1c(O)c2cccnc2n(O)c1=O [Example 19, N-benzyl-1,4-dihydroxy-2-oxo-1,2-dihydro-1,8-naphthyridine-3-carboxamide]	< 50	< 100
O=C(Nc1ccccc1)c1c(O)c2cccnc2n(O)c1=O [Example 20, 1,4-Dihydroxy-2-oxo-N-phenyl-1,2-dihydro-1,8-naphthyridine-3-carboxamide]	< 50	< 100
O=C(NCC(F)(F)F)c1c(O)c2cccnc2n(O)c1=O [Example 22, 1,4-Dihydroxy-2-oxo-N-(2,2,2-trifluoroethyl)-1,2-dihydro-1,8-naphthyridine-3-carboxamide]	< 50	< 100
CC(NC(=O)c1c(O)c2cccnc2n(O)c1=O)c1ccccc1 (stereo not shown) [Example 23, 1,4-Dihydroxy-2-oxo-N-(1-phenylethyl)-1,2-dihydro-1,8-naphthyridine-3-carboxamide]	< 50	< 100
O=C(NCC1CCNC1)c1c(O)c2cccnc2n(O)c1=O (stereo not shown) [Example 25, 1,4-Dihydroxy-2-oxo-N-(pyrrolidin-3-ylmethyl)-1,2-dihydro-1,8-naphthyridine-3-carboxamide]	< 50	< 100

SMILES	IC50 [1] [µM]	IC50 [2] [µM]
O=c1c(-c2c(F)cccc2F)c(O)c2cccnc2n1O [Example 29, 3-(2,6-Difluorophenyl)-1,4-dihydroxy-1,8-naphthyridin-2(1H)-one]	< 50	< 100
O=c1c(-c2ccccc2)c(O)c2cccnc2n1O [Example 30, 1,4-Dihydroxy-3-phenyl-1,8-naphthyridin-2-(1H)-one]	< 50	< 100
COc1ccc(-c2c(O)c3cccnc3n(O)c2=O)cc1 [Example 31, 1,4-Dihydroxy-3-(4-methoxyphenyl)-1,8-naphthyridin-2(1H)-one]	< 50	< 100
O=c1c(-c2ccccc2F)c(O)c2cccnc2n1O [Example 32, 3-(2-Fluorophenyl)-1,4-dihydroxy-1,8-naphthyridin-2(1H)-one]	< 50	< 100
O=c1c(-c2ccc(F)cc2)c(O)c2cccnc2n1O [Example 34, 3-(4-Fluorophenyl)-1,4-dihydroxy-1,8-naphthyridin-2(1H)-one]	< 50	< 100
O=c1c(-c2ccccc2Cl)c(O)c2cccnc2n1O [Example 35, 3-(2-Chlorophenyl)-1,4-dihydroxy-1,8-naphthyridin-2(1H)-one]	< 50	< 100
O=c1c(-c2cccc(F)c2)c(O)c2cccnc2n1O [Example 36, 3-(3-Fluorophenyl)-1,4-dihydroxy-1,8-naphthyridin-2(1H)-one]	< 50	< 100
O=c1c(-c2ccc(Cl)cc2)c(O)c2cccnc2n1O [Example 37, 3-(4-Chlorophenyl)-1,4-dihydroxy-1,8-naphthyridin-2(1H)-one]	< 50	< 100
O=c1c(-c2ccc(Br)cc2)c(O)c2cccnc2n1O [Example 38, 3-(4-Bromophenyl)-1,4-dihydroxy-1,8-naphthyridin-2(1H)-one]	< 50	< 100
COc1ccccc1-c1c(O)c2cccnc2n(O)c1=O [Example 39, 1,4-Dihydroxy-3-(2-methoxyphenyl)-1,8-naphthyridin-2(1H)-one]	< 50	< 100
O=c1c(C2CCCC2)c(O)c2cccnc2n1O [Example 41, 3-Cyclopentyl-1,4-dihydroxy-1,8-naphthyridin-2(1H)-one]	< 50	< 100
CCCCc1c(O)c2cccnc2n(O)c1=O [Example 42, 3-Butyl-1,4-dihydroxy-1,8-naphthyridin-2(1H)-one]	< 50	< 100
O=c1c(-c2cccc(Br)c2)c(O)c2cccnc2n1O [Example 44, 3-(3-bromophenyl)-1,4-dihydroxy-1,8-naphthyridin-2(1H)-one]	< 50	< 100
N#Cc1ccc(-c2c(O)c3cccnc3n(O)c2=O)cc1 [Example 45, 4-(1,4-dihydroxy-2-oxo-1,2-dihydro-1,8-naphthyridin-3-yl)benzonitrile]	< 50	< 100
O=c1c(-c2ccccc2O)c(O)c2cccnc2n1O [Example 46, 1,4-dihydroxy-3-(2-hydroxyphenyl)-1,8-naphthyridin-2(1H)-one]	< 50	< 100
O=c1c(-c2ccccc2)c(O)c2cc(Br)cnc2n1O [Example 47, 6-Bromo-1,4-dihydroxy-3-phenyl-1,8-naphthyridin-2(1H)-one]	< 50	< 100
CCOC(=O)c1c(O)c2cc(-c3ccccc3)cnc2n(O)c1=O [Example 49, Ethyl 1,4-dihydroxy-2-oxo-6-phenyl-1,2-dihydro-1,8-naphthyridine-3-carboxylate]	< 50	< 100
NCc1cccc(-c2cnc3c(c2)c(O)c(-c2ccccc2)c(=O)n3O)c1 [Example 50, 6-[3-(Aminomethyl)phenyl]-1,4-dihydroxy-3-phenyl-1,8-naphthyridin-2(1H)-one]	< 50	< 100
O=c1c(-c2ccccc2)c(O)c2cc(-c3ccccc3)cnc2n1O [Example 51, 1,4-Dihydroxy-3,6-diphenyl-1,8-maphthyridin-2(1H)-one]	< 50	< 100
O=c1c(-c2ccccc2)c(O)c2cc(Cc3ccccc3)cnc2n1O [Example 52, 6-Benzyl-1,4-dihydroxy-3-phenyl-1,8-naphthyridin-2(1H)-one]	< 50	< 100
